According to US20070037816A1, “Bicyclic piperazines as metabotropic glutatmate receptor antagonists” (AstraZeneca AB, priority 2005, published 2007):
pEC50: −log10 of the molar value.

Biological target: T1, human mGluR5d (Homo sapiens, UniProt P41594)
T1 construct: expressed in transfected cells; host or cells: GHEK (HEK cells expressing a glutamate transporter) for the IP3 assay
Assay: Functional assessment of mGluR5 antagonism in cell lines expressing mGluR5d (FLIPR calcium mobilization / IP3 turnover; assay not given)
Format: cell-based
Conditions: cells expressing human mGluR5d; assay (FLIPR or IP3) not stated
Description: The pharmacological properties of the compounds of the invention can be analyzed using standard assays for functional activity. Examples of glutamate receptor assays are well known in the art as described in for example Aramori et al., Neuron 8:757 (1992), Tanabe et al., Neuron 8:169 (1992), Miller et al., J. Neuroscience 15: 6103 (1995), Balazs, et al., J. Neurochemistry 69:151 (1997). The methodology described in these publications is incorporated herein by reference. Conveniently, the compounds of the invention can be studied by means of an assay that measures the mobilization of intracellular calcium, [Ca^2+]i in cells expressing mGluR5.
Intracellular calcium mobilization was measured by detecting changes in fluorescence of cells loaded with the fluorescent indicator fluo-3. Fluorescent signals were measured using the FLIPR system (Molecular Devices). A two addition experiment was used that could detect compounds that either activate or antagonize the receptor.
For FLIPR analysis, cells expressing human mGluR5d were seeded on collagen coated clear bottom 96-well plates with black sides and analysis of [Ca^2+]i mobilization was done 24 hours after seeding.
FLIPR experiments were done using a laser setting of 0.800 W and a 0.4 second CCD camera shutter speed. Each FLIPR experiment was initiated with 160 μL of buffer present in each well of the cell plate. After each addition of the compound, the fluorescence signal was sampled 50 times at 1 second intervals followed by 3 samples at 5 second intervals. Responses were measured as the peak height of the response within the sample period.
EC50 and IC50 determinations were made from data obtained from 8-point concentration response curves (CRC) performed in duplicate. Agonist CRC were generated by scaling all responses to the maximal response observed for the plate. Antagonist block of the agonist challenge was normalized to the average response of the agonist challenge in 14 control wells on the same plate.
We have validated a secondary functional assay for mGluR5d based on Inositol Phosphate (IP3) turnover. IP3 accumulation is measured as an index of receptor mediated phospholipase C turnover. GHEK cells stably expressing the human mGluR5d receptors were incubated with [3H] myo-inositol overnight, washed three times in HEPES buffered saline and pre-incubated for 10 minutes with 10 mM LiCl. Compounds (agonists) were added and incubated for 30 minutes at 37° C. Antagonist activity was determined by pre-incubating test compounds for 15 minutes, then incubating in the presence of glutamate (80 μM) or DHPG (30 μM) for 30 minutes. Reactions were terminated by the addition of perchloric acid (5%). Samples were collected and neutralized, and inositol phosphates were separated using Gravity-Fed Ion-Exchange Columns.
Functional Assessment of mGluR5 Antagonism in Cell Lines Expressing mGluR5d
The properties of the compounds of the invention can be analyzed using standard assays for pharmacological activity. Examples of glutamate receptor assays are well known in the art as described in for example Aramori et al, Neuron 8:757 (1992), Tanabe et al., Neuron 8:169 (1992), Miller et al, J. Neuroscience 15: 6103 (1995), Balazs, et al, J. Neurochemistry 69:151 (1997). The methodology described in these publications is incorporated herein by reference. Conveniently, the compounds of the invention can be studied by means of an assay (FLIPR) that measures the mobilization of intracellular calcium, [Ca^2+]i in cells expressing mGluR5 or another assay (IP3) that measures inositol phosphate turnover.
Cells expressing human mGluR5d as described in W097/05252 are seeded at a density of 100,000 cells per well on collagen coated clear bottom 96-well plates with black sides and experiments are done 24 h following seeding. […]

T1 sequence (P41594 21-942 isoform P41594-3 limits assumed): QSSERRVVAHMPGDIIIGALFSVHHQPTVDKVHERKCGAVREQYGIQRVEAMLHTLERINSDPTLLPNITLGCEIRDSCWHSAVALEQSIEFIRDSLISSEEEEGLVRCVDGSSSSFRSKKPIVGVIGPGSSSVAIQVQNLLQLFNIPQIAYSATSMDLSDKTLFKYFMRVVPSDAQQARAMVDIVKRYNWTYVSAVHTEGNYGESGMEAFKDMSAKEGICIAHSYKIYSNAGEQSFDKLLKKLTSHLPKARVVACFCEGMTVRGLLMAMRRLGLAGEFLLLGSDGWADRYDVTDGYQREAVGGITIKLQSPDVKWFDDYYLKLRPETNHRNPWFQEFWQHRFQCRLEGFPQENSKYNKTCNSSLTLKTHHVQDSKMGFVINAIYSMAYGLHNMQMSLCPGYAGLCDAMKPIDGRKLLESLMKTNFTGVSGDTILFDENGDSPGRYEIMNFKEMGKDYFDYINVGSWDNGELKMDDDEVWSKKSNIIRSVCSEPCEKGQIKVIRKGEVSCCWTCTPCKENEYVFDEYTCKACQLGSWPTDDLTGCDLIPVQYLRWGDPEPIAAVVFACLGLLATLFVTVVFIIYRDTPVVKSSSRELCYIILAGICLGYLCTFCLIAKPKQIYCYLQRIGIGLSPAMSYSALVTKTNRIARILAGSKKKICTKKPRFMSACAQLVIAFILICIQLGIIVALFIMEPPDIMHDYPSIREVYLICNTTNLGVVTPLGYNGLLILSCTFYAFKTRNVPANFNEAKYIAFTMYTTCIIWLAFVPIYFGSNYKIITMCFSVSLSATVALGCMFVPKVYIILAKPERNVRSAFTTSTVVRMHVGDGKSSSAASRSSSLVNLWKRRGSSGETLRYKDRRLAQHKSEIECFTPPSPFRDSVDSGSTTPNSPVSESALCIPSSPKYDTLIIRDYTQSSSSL

A pEC50 of 6.66 was found for N#Cc1cccnc1N1CCN2[C@@H](CC[C@@H]2c2cn(-c3cccc(F)c3)nn2)C1 (racemic) [Example 4.1, (±)-2-[(6R,8aS)-6-[1-(3-fluorophenyl)-1H-1,2,3-triazol4-yl]hexahydropyrrolo[1,2-a]pyrazin-2(1H)-yl]nicotinonitrile] in this work.
A pEC50 of 8.00 was found for N#Cc1nccnc1N1CCN2[C@@H](CC[C@@H]2c2nnn(-c3cccc(Cl)c3)n2)C1 (racemic) [Example 5.1, (±)-3-[(6R,8aS)-6-[2-(3-chlorophenyl)-2H-tetrazol-5-yl]hexahydropyrrolo[1,2-a]pyrazin-2(1H)-yl]pyrazine-2-carbonitrile] in this work.
A pEC50 of 7.80 was found for Cc1cccc(-n2nnc([C@H]3CC[C@H]4CN(c5ncccc5C#N)CCN43)n2)c1 (racemic) [Example 5.4, (±)-2-[(6R,8aS)-6-[2-(3-methylphenyl)-2H-tetrazol-5-yl]hexahydropyrrolo[1,2-a]pyrazin-2(1H)-yl]nicotinonitrile] in this work.
A pEC50 of 5.62 was found for N#Cc1ccc(N2CCN3[C@@H](CC[C@@H]3c3cc(-c4cccc(Cl)c4)on3)C2)nc1 (racemic) [Example 6.2, (±)-6-[(6R,8aS)-6-[5-(3-chlorolphenyl)isoxazol-3-yl]hexahydropyrrolo[1,2-a]pyrazin-2(1H)-yl]nicotinonitrile] in this work.
A pEC50 of 6.42 was found for N#Cc1nccnc1N1CCN2[C@@H](CC[C@@H]2c2cc(-c3cccc(Cl)c3)no2)C1 (racemic) [Example 8.1, (±)-3-[(6R,8aS)-6-[3-(3-chlorophenyl)isoxazol-5-yl]hexahydropyrrolo[1,2-a]pyrazin-2(1H)-yl]pyrazine-2-carbonitrile] in this work.
A pEC50 of 6.80 was found for N#Cc1cccc(-c2cc([C@H]3CCC[C@H]4CN(c5nccnc5C#N)CCN43)no2)c1 (racemic) [Example 13.1, (±)-3-[(6R,9aS)-6-[5-(3-cyanophenyl)isoxazol-3-yl]octahydro-2H-pyrido[1,2-a]pyrazin-2-yl]pyrazine-2-carbonitrile] in this work.
